According to PubChem BioAssay (NCI):
Values joined by “and” are separate entries in the source; they are usually repeats but may differ in a detail not shown here. Equal values may be shown once.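 Briefly, cells in 96-well plates were exposed to five compound concentrations for 48 h, and endpoints were estimated by linear interpolation. GI50 = concentration required for 50% inhibition of growth. TGI: concentration producing complete growth inhibition.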

Assays:
Test in all cases: NCI-60 cell line screen, 48 h
[1] = test system: MDA-MB-435
[2] = test system: NCI-H226 lung
[3] = test system: A549 NSCLC
[4] = test system: UACC-257 melanoma
[5] = test system: SK-MEL-2 melanoma
[6] = test system: TK-10 renal
[7] = test system: NCI-H460 lung
[8] = test system: UO-31 renal
[9] = test system: CCRF-CEM leukemia
[10] = test system: OVCAR-5 ovarian

SMILES | GI50 [1] [µM] | TGI [1] | GI50 [2] [µM] | TGI [2] | GI50 [3] [µM] | TGI [3] | GI50 [4] [µM] | TGI [4] | GI50 [5] [µM] | TGI [5] | GI50 [6] [µM] | TGI [6] | GI50 [7] [µM] | TGI [7] [µM] | GI50 [8] [µM] | TGI [8] | GI50 [9] [µM] | TGI [9] | GI50 [10] [µM] | TGI [10]
CC(=O)c1ccc2c(c1)N(CCCN1CCN(CCO)CC1)c1ccccc1S2 | 1.72 | 3.52 µM | 7.14 | 27.9 µM | 3.3 | 11.5 µM | 1.85 | 3.51 µM | 2.11 | 6.02 µM | 1.69 | 3.6 µM | 2.05 | 4.09 | 1.79 | 5.46 µM | 1.68 | 5.53 µM | 2.29 | 9.78 µM
CN(C)N1C(=O)SCC(c2ccccc2)(c2ccccc2)C1=O | – | > 100 µM | – | > 100 µM | – | > 100 µM | – | > 100 µM | – | > 100 µM | – | > 100 µM | – | > 100 | – | > 100 µM | – | > 100 µM | – | > 100 µM
C=C1C(=O)O[C@H]2[C@H]1CC/C(COC(=O)NCc1ccc(Cn3c(=O)sn(CCCCC)c3=O)cc1)=C\CC[C@@]1(C)O[C@@H]21 | 1.71 | 3.5 µM | 10.7 | 27.6 µM | 8.82 | 22.8 µM | 1.57 | 3.03 µM | 2.41 | 5.46 µM | 1.96 | 3.66 µM | 3.42 | 12.5 | 1.46 | 2.8 µM | 0.364 | 1.67 µM | 2.01 | 4.91 µM
CC(/C=C/C(O)=C1/C(=O)CNC1=O)=C\[C@@H](C)[C@H]1O[C@@]2(C)O[C@H](C(=O)[C@@H]3O[C@@]32C)[C@@H]1C | – | 83.1 µM | – | 54.4 µM | – | – | – | 35.6 µM | – | 50.1 µM | – | 44.2 µM | – | – | – | 33.2 µM | – | > 100 µM | – | 57.5 µM
Cn1c(=O)n(C)c2cc(CNCCNc3ccnc4cc(Cl)ccc34)ccc21 | 15.8 | 31.9 µM | 72 | > 100 µM | 50.3 | > 100 µM | 17.6 | 33.3 µM | 22.6 | 52.5 µM | 40.2 | > 100 µM | 20.9 | 60.8 | 23.3 | > 100 µM | 30.7 | > 100 µM | 20.3 | 65.4 µM
C=CC(C)(C)n1cc(C2=C(O)C(=O)C(c3cn(C(C)(C)C=C)c4ccccc34)=C(O)C2=O)c2ccccc21 | – | 14.7 µM | – | 14.3 µM | – | 14.6 µM | – | 9.73 µM | – | 4.22 µM | – | 10.9 µM | – | 12.6 | – | 4.27 µM | – | > 100 µM | – | 4.45 µM
C/C(=C(/c1ccccc1)c1ccc(OCC(O)CNCCN2CCOCC2)cc1)c1ccccc1 (stereo not given) | 1.67 | 3.09 µM | 12.1 | 29.3 µM | 3.99 | 15.6 µM | 2.02 | 4.07 µM | 2.5 | 6.24 µM | 2.69 | 7.93 µM | 1.8 | 3.4 | 1.37 | 2.77 µM | 3.48 | 11.3 µM | 6.48 | 20.5 µM
CCCc1nc(Cl)nc(Cl)c1Cl | – | 1.41 µM | – | 8.97 µM | – | 6.59 µM | – | 2 µM | – | 2.07 µM | – | 4.71 µM | – | 5.66 | – | 0.111 µM | – | 0.0731 µM | – | 1.74 µM
CC(C)(C)[Si](C)(C)OC1[C@@H](CNC(N)=O)O[C@@H](n2cnc3c(NC(=O)Nc4ccccc4)ncnc32)[C@H]1O[Si](C)(C)C(C)(C)C (stereo not given in full) | 2.21 | 8.51 µM | 5.39 | 11.7 µM | 1.98 | 7.82 µM | 5.36 | 12.1 µM | 7.09 | 14.9 µM | – | – | 1.02 | 1.98 | 1.92 | 8.29 µM | 1.06 | 2.48 µM | 6.65 | 13.5 µM
ClCc1cccc(Cn2cnc3c(Cl)nc(Cl)nc32)c1 | 1.69 | 3.26 µM | 3.24 | – | 3.08 | 9.89 µM | 1.86 | 3.45 µM | 1.98 | 4.44 µM | 1.74 | 3.95 µM | 2.36 | 6.25 | 1.58 | 3.06 µM | 2.72 | > 100 µM | 6.52 | 20.2 µM
CCSc1ccc([C@@H]2[C@@H](O)C(=O)N2c2cc(OC)c(OC)c(OC)c2)cc1 | < 0.01 | < 0.0112 µM | 0.521 | 33.7 µM | < 0.0159 | 80.6 µM | 0.0877 | 35 µM | 0.0221 | 28.4 µM | 17.7 | 84.1 µM | < 0.0138 | 11.9 | 0.21 | 34.2 µM | < 0.0171 | > 100 µM | 0.0526 | > 100 µM
CCCCCCNCCCNc1c2cc(OC)ccc2nc2cccc([N+](=O)[O-])c12 | 0.164 | 0.314 µM and 0.321 µM | 0.38 | 0.716 µM and 1.41 µM | 0.213 | 0.393 µM and 1.08 µM | 0.395 | 1.4 µM and 1.47 µM | 0.048 | 0.209 µM and 0.199 µM | 0.322 | 0.387 µM and 0.875 µM | 0.0337 | 0.183 | 0.187 | 0.703 µM and 0.431 µM | 0.118 | 0.289 µM and 0.538 µM | 0.19 | 0.383 µM and 0.794 µM
CCn1cc(/C=C2\Oc3cc(OCC#N)ccc3C2=O)c2cc(OC)ccc21 | 0.0764 | 0.263 µM | 6.65 | > 44.3 µM | 2.48 | > 100 µM | 57.8 | > 100 µM | 0.807 | > 68.5 µM | 18.1 | > 64.1 µM | 0.347 | > 100 | 0.669 | > 100 µM | 0.113 | > 100 µM | 1.41 | > 100 µM
CC(=O)/C=C/c1ccc(Nc2c3ccccc3nc3occ(Cl)c23)cc1 | 2.03 | 5.95 µM | 4.87 | 21.7 µM | 4.04 | 32.5 µM | 1.24 | 5.59 µM | 42.6 | > 100 µM | 3.87 | 24.8 µM | 2.96 | 14.6 | 14.2 | > 100 µM | 2.96 | 19.7 µM | 13.9 | 30.7 µM
O=[N+]([O-])c1cc([As](Br)c2ccc(O)c([N+](=O)[O-])c2)ccc1O | – | 3.51 µM | – | 3.21 µM | – | 7.02 µM | – | 3.33 µM | – | 2.59 µM | – | 3.14 µM | – | > 25.6 | – | 3.23 µM | – | 0.436 µM | – | 4.2 µM
CCOC(=O)c1sc(-c2ccc(OS(=O)(=O)C[C@]34CCC(CC3=O)C4(C)C)c(C=O)c2)nc1C | 1.06 | 2.76 µM | 0.943 | 2.72 µM | 1.25 | > 50 µM | 1.26 | 3.66 µM | 1.13 | 2.69 µM | 0.721 | 4.48 µM | 1.03 | 3.24 | 1.05 | 4.65 µM | 1.01 | > 50 µM | 0.97 | 2.68 µM
COc1ccc(-c2c(C#N)c(N)nc(N3CCOCC3)c2C#N)cc1 | 28.5 | > 100 µM | 26.3 | > 100 µM | 29.4 | > 100 µM | 23.9 | 82.1 µM | 27.1 | > 100 µM | 19.6 | 86.1 µM | 29.9 | > 100 | 13.1 | 49.2 µM | 17.9 | > 100 µM | 13.9 | 59.9 µM
C=C(CN1CCc2c([nH]c3ccccc23)C1)c1ccc(C(=O)Nc2ccccc2N)cc1 | 8.47 | 17.7 µM | 1.32 | 10.1 µM | 4.85 | 32 µM | 3.2 | 11.6 µM | 4.54 | 22 µM | 2.6 | 9.58 µM | 3.57 | 21 | 3.53 | 9.89 µM | 0.0581 | 46.3 µM | 7.15 | 31.6 µM
COc1ccc(/C=C2/C(=O)N(C(=O)c3ccccc3O)N=C2C)cc1 | – | > 100 µM | – | 32.3 µM | – | > 100 µM | – | > 100 µM | – | > 100 µM | – | > 100 µM | – | > 100 | – | – | – | > 100 µM | – | > 100 µM
C=C1C(=O)O[C@H]2[C@H]1CC/C(Cn1cc(-c3ccc(N)cc3)nn1)=C\CC[C@@]1(C)O[C@@H]21 | 3.01 | 11.5 µM | 3.34 | 13.2 µM | 11.9 | 28.1 µM | – | – | 10.6 | 28.9 µM | 2.25 | 5.43 µM | 10.4 | 29.7 | 1.87 | 10.1 µM | 2 | 20.3 µM | 6.43 | 22.9 µM
C=C1C(=O)OC2C1CCC(C)C1(O)C=CC(=O)C21C (stereo not given) | – | > 10 µM | – | > 10 µM | – | > 10 µM | – | – | – | > 10 µM | – | > 10 µM | – | > 10 | – | > 10 µM | – | > 10 µM | – | –
